For orientation: EC50 means the concentration giving half of the maximal effect. Read a high EC50 as a less potent agent.

The target of the first test is T1, IDO1 (Homo sapiens, UniProt P14902).
T1 construct: HeLa cells were treated with a test compound in the presence of IFNγ, which induces IDO1 expression; host or cells: H1-HeLa cells, IDO1 induced with IFNγ
T1 sequence (P14902 whole entry): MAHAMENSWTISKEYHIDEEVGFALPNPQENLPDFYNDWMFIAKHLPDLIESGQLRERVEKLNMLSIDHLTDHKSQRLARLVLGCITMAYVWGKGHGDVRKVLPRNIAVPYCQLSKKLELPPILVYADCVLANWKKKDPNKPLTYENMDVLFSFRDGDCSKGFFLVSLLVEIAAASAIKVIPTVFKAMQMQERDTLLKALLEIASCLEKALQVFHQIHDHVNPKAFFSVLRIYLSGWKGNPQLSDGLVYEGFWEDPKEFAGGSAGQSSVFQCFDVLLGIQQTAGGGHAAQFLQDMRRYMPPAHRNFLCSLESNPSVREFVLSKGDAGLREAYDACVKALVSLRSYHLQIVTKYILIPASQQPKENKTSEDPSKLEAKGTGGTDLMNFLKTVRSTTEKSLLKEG
Nature of the test: Cell-based (HeLa) assay for measurement of IDO1 inhibition (kynurenine levels in supernatant after IFNγ induction). To be noted: HeLa cells, IFNγ-induced IDO1, kynurenine in supernatant after 48 hour incubation; geometric mean of a minimum of four determinations. The procedure, abridged:
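HeLa cells, 1,250 per well, treated with compound (0.5% DMSO final) plus IFNγ to induce IDO1, for 48 h. Supernatant kynurenine measured by TCA hydrolysis at 60 °C, then p-dimethylaminobenzaldehyde, absorbance 480 nm. EC50 from a four-parameter fit normalized to −/+IFNγ controls; geometric mean of at least four runs.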
`OCc1nc2c(/C(=N/O)Nc3ccc(F)c(C(F)(F)F)c3)ccnc2[nH]1` [Example 171, N-(4-Fluoro-3-(trifluoromethyl)phenyl)-N′-hydroxy-2-(hydroxymethyl)-3H-imidazo[4,5-b]pyridine-7-carboximidamide]: the response was half-maximal at 4 µM (EC50).
Still for that read-out and setting: under `O/N=C(\Nc1ccc(F)c(Cl)c1)c1ccnc2nc(CNC3CCOCC3)[nH]c12` [Example 132, N-(3-Chloro-4-fluorophenyl)-N′-hydroxy-2-(((tetrahydro-2H-pyran-4-yl)amino)methyl)-1H-imidazo[4,5-b]pyridine-7-carboximidamide] stands 3.43 µM; under `CC(C)Nc1nc2nccc(/C(=N/O)Nc3ccc(F)c(Cl)c3)c2[nH]1` [Example 165, N-(3-Chloro-4-fluorophenyl)-N′-hydroxy-2-(isopropylamino)-1H-imidazo[4,5-b]pyridine-7-carboximidamide], 0.705 µM; under `O/N=C(\Nc1ccc(C(F)(F)F)cc1)c1ccnc2nc[nH]c12` [Example 91, N′-Hydroxy-N-(4-(trifluoromethyl)phenyl)-1H-imidazo[4,5-b]pyridine-7-carboximidamide], 2.24 µM.
On the same count and under the same terms, under `O/N=C(\Nc1ccc(F)c(Cl)c1)c1ccnc2nc(NCCC3CCOCC3)[nH]c12` [Example 224, N-(3-chloro-4-fluorophenyl)-N′-hydroxy-2-((2-(tetrahydro-2H-pyran-4-yl)ethyl)amino)-1H-imidazo[4,5-b]pyridine-7-carboximidamide] stands 3.74 µM; under `Nc1nc2c(F)ccc(/C(=N/O)Nc3ccc(F)c(Br)c3)c2[nH]1` [Example 19, 2-Amino-N-(3-bromo-4-fluorophenyl)-4-fluoro-N′-hydroxy-1H-benzo[d]imidazole-7-carboximidamide], 0.456 µM; under `O/N=C(\Nc1ccc(F)c(Cl)c1)c1cc(Cl)cc2[nH]cnc12` [Example 11, 6-Chloro-N-(3-chloro-4-fluorophenyl)-N′-hydroxy-1H-benzo[d]imidazole-4-carboximidamide], 7.6 µM.

Still in this test, the particulars now being: HeLa cells, IFNγ-induced IDO1, kynurenine in supernatant, 48 hour incubation; geometric mean of a minimum of four determinations.
`CNC(C)Cc1nc2nccc(/C(=N/O)Nc3ccc(F)c(Cl)c3)c2[nH]1` (stereo not shown) [Example 327, N-(3-chloro-4-fluorophenyl)-N′-hydroxy-2-(2-(methylamino)propyl)-1H-imidazo[4,5-b]pyridine-7-carboximidamide]: the midpoint of the response, the EC50, lay at 7.62 µM.
Compound `CN1CCOC(CNc2nc3nccc(/C(=N/O)Nc4ccc(F)c(Cl)c4)c3[nH]2)C1` (stereo not shown) [Example 357, N-(3-chloro-4-fluorophenyl)-N′-hydroxy-2-(((4-methylmorpholin-2-yl)methyl)amino)-1H-imidazo[4,5-b]pyridine-7-carboximidamide] returned a concentration giving a half-maximal response (EC50) of 3.24 µM.
With `O/N=C(\Nc1ccc(F)c(Cl)c1)c1cc(F)c(F)c2nc(NCc3cccnc3)[nH]c12` [Example 343, N-(3-chloro-4-fluorophenyl)-4,5-difluoro-N′-hydroxy-2-((pyridin-3-ylmethyl)amino)-1H-benzo[d]imidazole-7-carboximidamide], the response was half-maximal at 3.86 µM (EC50).
Take `CN(C)C(=O)CNc1nc2c(F)c(F)cc(/C(=N/O)Nc3ccc(F)c(Cl)c3)c2[nH]1` [Example 301, 2-((7-(N-(3-chloro-4-fluorophenyl)-N′-hydroxycarbamimidoyl)-4,5-difluoro-1H-benzo[d]imidazol-2-yl)amino)-N,N-dimethylacetamide]: the 50% effective concentration (EC50) stood at 3.96 µM.
Still for that read-out and setting: to `CN(C)CCNc1nc2c(F)ccc(/C(=N/O)Nc3cccc(Br)c3)c2[nH]1` [Example 383, N-(3-bromophenyl)-2-((2-(dimethylamino)ethyl)amino)-4-fluoro-N′-hydroxy-1H-benzo[d]imidazole-7-carboximidamide] belongs 0.319 µM; to `O/N=C(\Nc1ccc(F)c(Cl)c1)c1cc(F)c(F)c2nc(NCC3COCCN3)[nH]c12` (stereo not shown) [Example 467, N-(3-chloro-4-fluorophenyl)-4,5-difluoro-N′-hydroxy-2-((morpholin-3-ylmethyl)amino)-1H-benzo[d]imidazole-7-carboximidamide], 2.12 µM.

Values taken from patent US9951065B2 (Gilead Sciences, Inc., priority 2015, dated 2018).
